Consider 81 compounds from patent US11213031B2, “Tetrazolylpropyl derivatives and their use as fungicides” (BAYER AKTIENGESELLSCHAFT, priority 2017, dated 2022).

The nature of the first data set: Log P by HPLC on reversed phase columns (EEC directive 79/831 Annex V.A8).
Conditions: not given
It is filed as physicochemical. The protocol: Measurement of Log P values was performed according to EEC directive 79/831 Annex V.A8 by HPLC (High Performance Liquid Chromatography) on reversed phase columns with the following methods: • ^[a]Log P value is determined by measurement of LC-UV, in an acidic range, with 0.1% formic acid in water and acetonitrile as eluent (linear gradient from 10% acetonitrile to 95% acetonitrile). • ^[b]Log P value is determined by measurement of LC-UV, in a neutral range, with 0.001 molar ammonium acetate solution in water and acetonitrile as eluent (linear gradient from 10% acetonitrile to 95% acetonitrile). • ^[c]Log P value is determined by measurement of LC-UV, in an acidic range, with 0.1% phosphoric acid and acetonitrile as eluent (linear gradient from 10% acetonitrile to 95% acetonitrile).
If more than one Log P value is available within the same method, all the values are given and separated by “+”.
Calibration was done with straight-chain alkan2-ones (with 3 to 16 carbon atoms) with known Log P values (measurement of Log P values using retention times with linear interpolation between successive alkanones). Lambda-max-values were determined using UV-spectra from 200 nm to 400 nm and the peak values of the chromatographic signals.
`COc1ccc(CC(O)(Cn2cnnn2)C2(Cl)CC2)c(F)c1F` (stereo not drawn) [Ia-48]: the LogP is 2.59^[a].
The same measure, in the same setting: under `CC(c1cc(F)ccc1F)C(O)(Cn1cnnn1)C1(Cl)CC1` (single isomer, unassigned) [Ia-16] stands 2.66^[a]; under `OC(Cc1ccccc1Br)(Cn1cnnn1)C1(Cl)CC1` (stereo not drawn) [Ia-24], 2.88^[a].
For the compound `Cc1ccc(CC(O)(Cn2cnnn2)C2(Cl)CC2)cc1` (stereo not drawn) [Ia-57], the LogP was 2.78^[a].
The same measure, in the same setting: in the case of `OC(Cc1ccccc1)(Cn1cnnn1)C1(F)CC1` (stereo not drawn) [Ia-17] it was 2.08^[a].
In the case of `OC(Cc1c(F)ccc(F)c1F)(Cn1cnnn1)C1(Cl)CC1` (stereo not drawn) [Ia-54], the LogP was 2.60^[a].
Take `C=C(c1ccccc1Cl)C(O)(Cn1cnnn1)C1(Cl)CC1` (stereo not drawn) [Ia-en-09]: the LogP was 2.71^[a].
Still for that read-out and setting: in the case of `OC(Cc1cncc(F)c1)(Cn1cnnn1)C1(Cl)CC1` (stereo not drawn) [Ia-59] it was 1.53^[a].
The same measure, in the same setting: in the case of `OC(Cc1c(F)cc(Cl)cc1F)(Cn1cnnn1)C1(Cl)CC1` (stereo not drawn) [Ia-75] it was 2.98^[a]; in that of `OC(Cc1cc(F)cc(F)c1)(Cn1cnnn1)C1(Cl)CC1` (stereo not drawn) [Ia-31], 2.63^[a]; in that of `Cc1ccc(CC(O)(Cn2cnnn2)C2(Cl)CC2)c(F)c1F` (stereo not drawn) [Ia-55], 2.92^[a].
Still for that read-out and setting: under `OC(Cc1cc(F)cc(F)c1F)(Cn1ncnn1)C1(Cl)CC1` (stereo not drawn) [Ib-11] stands 3.06^[a]; under `Cc1ccc(F)c(CC(O)(Cn2ncnn2)C2(Cl)CC2)c1F` (stereo not drawn) [Ib-09], 3.37^[a]; under `COc1ccc(CC(O)(Cn2cnnn2)C2(Cl)CC2)cc1` (stereo not drawn) [Ia-58], 2.40^[a].
In the case of `OC(Cc1ccccc1Cl)(Cn1cnnn1)C1(F)CC1` (stereo not drawn) [Ia-19], the LogP is 2.40^[a].
Regarding `O=C(Cn1ncnn1)C1(F)CC1` [XVIb-03], the LogP was 0.86^[a].
On the same count and under the same terms, in the case of `OC(Cc1c(F)cccc1F)(Cn1cnnn1)C1(Cl)CC1` (stereo not drawn) [Ia-13] it was 2.52^[a]; in that of `OC(Cc1cc(F)cc(F)c1F)(Cn1cnnn1)C1(Cl)CC1` (stereo not drawn) [Ia-43], 2.66^[a].
Take `OC(Cc1cncc(F)c1)(Cn1ncnn1)C1(Cl)CC1` (stereo not drawn) [Ib-23]: the LogP was 1.76^[a].
Same read-out and setting: under `CC1(C(O)(Cc2ccccc2C(F)(F)F)Cn2cnnn2)CC1` (stereo not drawn) [Ia-11] stands 2.94^[a]; under `COC(Cc1ccccc1Cl)(Cn1cnnn1)C1(Cl)CC1` (stereo not drawn) [Ia-37], 3.19^[a]; under `C=C(c1cccc(F)c1F)C(O)(Cn1cnnn1)C1(Cl)CC1` (stereo not drawn) [Ia-en-08], 2.57^[a].
Same read-out and setting: under `COc1cc(F)c(CC(O)(Cn2ncnn2)C2(Cl)CC2)c(F)c1` (stereo not drawn) [Ib-15] stands 3.11^[a]; under `OC(Cc1c(F)cc(F)cc1F)(Cn1ncnn1)C1(Cl)CC1` (stereo not drawn) [Ib-07], 3.09^[a].
Regarding `Cc1ccc(CC(O)(Cn2cnnn2)C2(C)CC2)cc1` (stereo not drawn) [Ia-30], the LogP was 2.73^[a].
Still for that read-out and setting: in the case of `OC(Cc1ccc(F)c(Cl)c1F)(Cn1cnnn1)C1(Cl)CC1` (stereo not drawn) [Ia-38] it was 2.94^[a]; in that of `CC=C(c1cccc(Cl)c1F)C(O)(Cn1cnnn1)C1(Cl)CC1` (racemic) [Ia-en-05], 3.00^[a]; in that of `OC(Cc1ccc(F)c(Cl)c1)(Cn1ncnn1)C1(Cl)CC1` (stereo not drawn) [Ib-18], 3.33^[a].
With `OC(Cc1ccc(F)c(Cl)c1F)(Cn1ncnn1)C1(Cl)CC1` (stereo not drawn) [Ib-12], the LogP was 3.37^[a].
Turning to `OC(Cc1ccncc1Cl)(Cn1ncnn1)C1(Cl)CC1` (stereo not drawn) [Ib-22], the LogP is 1.96^[b].
Same read-out and setting: in the case of `OC(Cc1ccc(F)c(F)c1F)(Cn1cnnn1)C1(Cl)CC1` (stereo not drawn) [Ia-44] it was 2.71^[a].
The same measure, in the same setting: in the case of `COc1ccccc1CC(O)(Cn1cnnn1)C1(Cl)CC1` (stereo not drawn) [Ia-14] it was 2.73^[a]; in that of `OC(Cc1c(F)cccc1Cl)(Cn1cnnn1)C1(Cl)CC1` (stereo not drawn) [Ia-72], 2.90^[a]; in that of `O=C(Cn1cnnn1)C1(F)CC1` [XVIa-03], 0.59^[a].
Turning to `COc1c(F)ccc(CC(O)(Cn2ncnn2)C2(Cl)CC2)c1F` (stereo not drawn) [Ib-14], the LogP was 3.00^[a].
On the same count and under the same terms, in the case of `OC(Cc1c(F)ccc(F)c1F)(Cn1ncnn1)C1(Cl)CC1` (stereo not drawn) [Ib-19] it was 3.02^[a]; in that of `Cc1ccc(F)c(CC(O)(Cn2cnnn2)C2(Cl)CC2)c1F` (stereo not drawn) [Ia-36], 2.90^[a]; in that of `OC(Cc1ccc(Cl)cc1F)(Cn1ncnn1)C1(Cl)CC1` (stereo not drawn) [Ib-08], 3.37^[a].
Still for that read-out and setting: in the case of `Cc1ccccc1CC(O)(Cn1cnnn1)C1(C)CC1` (stereo not drawn) [Ia-12] it was 2.75^[a]; in that of `OC(Cc1cc(F)c(F)cc1F)(Cn1ncnn1)C1(Cl)CC1` (stereo not drawn) [Ib-16], 3.09^[a].
Same read-out and setting: under `CC1(C(O)(Cc2ccccc2Cl)Cn2cnnn2)CC1` (stereo not drawn) [Ia-08] stands 2.80^[a]; under `OC(Cc1cccc(Br)c1)(Cn1cnnn1)C1(F)CC1` (stereo not drawn) [Ia-23], 2.59^[a]; under `CC1(C(O)(Cc2ccccc2Br)Cn2cnnn2)CC1` (stereo not drawn) [Ia-09], 2.92^[a].
In the case of `Cc1cccc(CC(O)(Cn2cnnn2)C2(Cl)CC2)c1` (stereo not drawn) [Ia-64], the LogP was 2.78^[a].
The same measure, in the same setting: in the case of `OC(Cc1cccc(Cl)c1F)(Cn1cnnn1)C1(Cl)CC1` (stereo not drawn) [Ia-02] it was 2.72^[a].
The same measure, in the same setting: in the case of `C=C(c1ccccc1)C(O)(Cn1cnnn1)C1(Cl)CC1` (stereo not drawn) [Ia-en-03] it was 2.46^[a]; in that of `OC(Cc1cc(F)c(F)cc1F)(Cn1cnnn1)C1(Cl)CC1` (stereo not drawn) [Ia-51], 2.66^[a].
Same read-out and setting: under `CC=C(c1cccc(F)c1F)C(O)(Cn1cnnn1)C1(Cl)CC1` (racemic) [Ia-en-06] stands 2.82^[a]; under `CC(c1cccc(F)c1F)C(O)(Cn1cnnn1)C1(Cl)CC1` (stereo not drawn) [Ia-25], 2.96^[a]; under `OC(Cc1cccc(Br)c1F)(Cn1cnnn1)C1(Cl)CC1` (stereo not drawn) [Ia-41], 2.92^[a].
With `COc1cccc(CC(O)(Cn2cnnn2)C2(Cl)CC2)c1` (stereo not drawn) [Ia-60], the LogP was 2.42^[a].
Same read-out and setting: under `OC(Cc1cncc(Cl)c1)(Cn1ncnn1)C1(Cl)CC1` (stereo not drawn) [Ib-01] stands 2.13^[a]; under `CC1(C(=O)Cn2cnnn2)CC1` [XVIa-02], 0.79^[a].
Same read-out and setting: in the case of `OC(Cc1cc(F)ccc1F)(Cn1cnnn1)C1(Cl)CC1` (stereo not drawn) [Ia-42] it was 2.52^[a].
On the same count and under the same terms, in the case of `OC(Cc1cccc(Cl)c1Cl)(Cn1cnnn1)C1(Cl)CC1` (stereo not drawn) [Ia-15] it was 3.19^[a]; in that of `OC(Cc1ccc(F)c(Cl)c1)(Cn1cnnn1)C1(Cl)CC1` (stereo not drawn) [Ia-52], 2.90^[a]; in that of `CC1(C(O)(Cc2ccccc2)Cn2cnnn2)CC1` (stereo not drawn) [Ia-10], 2.35^[a].
In the case of `CC=C(c1ccccc1F)C(O)(Cn1cnnn1)C1(Cl)CC1` (racemic) [Ia-en-04], the LogP was 2.66^[a].
The same measure, in the same setting: under `Cc1ccc(CC(O)(Cn2ncnn2)C2(Cl)CC2)c(F)c1F` (stereo not drawn) [Ib-21] stands 3.33^[a].
Same read-out and setting: under `OC(Cc1ccncc1Cl)(Cn1cnnn1)C1(Cl)CC1` (stereo not drawn) [Ia-73] stands 1.65^[a].
On the same count and under the same terms, under `OC(Cc1ccc(Br)cc1F)(Cn1cnnn1)C1(Cl)CC1` (stereo not drawn) [Ia-67] stands 3.23^[a]; under `OC(Cc1c(F)cc(F)cc1F)(Cn1cnnn1)C1(Cl)CC1` (stereo not drawn) [Ia-35], 2.64^[a].
For the compound `CC(c1cc(F)ccc1F)C(O)(Cn1cnnn1)C1(Cl)CC1` (single isomer, unassigned) [Ia-18], the LogP is 2.92^[a].
Same read-out and setting: under `COc1ccc(CC(O)(Cn2ncnn2)C2(Cl)CC2)c(F)c1F` (stereo not drawn) [Ib-13] stands 2.94^[a]; under `OC(Cc1ccc(F)cc1Cl)(Cn1cnnn1)C1(Cl)CC1` (stereo not drawn) [Ia-39], 2.90^[a].
The same measure, in the same setting: under `C=C(c1cc(F)ccc1F)C(O)(Cn1cnnn1)C1(Cl)CC1` (stereo not drawn) [Ia-en-01] stands 2.54^[a].
On the same count and under the same terms, under `Cc1ccc(F)c(CC(O)(Cn2cnnn2)C2(Cl)CC2)c1Cl` (stereo not drawn) [Ia-45] stands 3.23^[a]; under `OC(Cc1ccccc1C(F)(F)F)(Cn1cnnn1)C1(Cl)CC1` (stereo not drawn) [Ia-07], 3.02^[a]; under `OC(Cc1ccc(F)c(F)c1)(Cn1ncnn1)C1(Cl)CC1` (stereo not drawn) [Ib-24], 3.04^[a].
With `OC(Cc1cccc(F)c1)(Cn1cnnn1)C1(Cl)CC1` (stereo not drawn) [Ia-69], the LogP is 2.54^[a].
Same read-out and setting: under `OC(Cc1ccccc1Br)(Cn1cnnn1)C1(F)CC1` (stereo not drawn) [Ia-21] stands 2.49^[a].
Same read-out and setting: in the case of `OC(Cc1cccc(F)c1F)(Cn1ncnn1)C1(Cl)CC1` (stereo not drawn) [Ib-03] it was 2.82^[a]; in that of `CC=C(c1cccc(F)c1F)C(O)(Cn1cnnn1)C1(Cl)CC1` (racemic) [Ia-en-07], 2.75^[a].
The same measure, in the same setting: under `OC(Cc1ccc(F)cc1F)(Cn1ncnn1)C1(Cl)CC1` (stereo not drawn) [Ib-17] stands 2.96^[a]; under `OC(Cc1cccnc1F)(Cn1ncnn1)C1(Cl)CC1` (stereo not drawn) [Ib-25], 1.91^[a]; under `OC(Cc1cccc(C(F)(F)F)c1F)(Cn1cnnn1)C1(Cl)CC1` (stereo not drawn) [Ia-71], 3.04^[a].
`OC(Cc1cccc(Br)c1)(Cn1cnnn1)C1(Cl)CC1` (stereo not drawn) [Ia-62]: the LogP is 2.92^[a].
As for `OC(Cc1ccc(Cl)cc1F)(Cn1cnnn1)C1(Cl)CC1` (stereo not drawn) [Ia-40], the LogP was 2.90^[a].

Staying with this data set, now noted: method [a]: LC-UV, acidic range, 0.1% formic acid in water and acetonitrile as eluent.
`O=C(Cn1cnnn1)C1(Cl)CC1` [XVIa-01, 1-(1-chlorocyclopropyl)-2-(tetrazol-1-yl)ethanone]: the chromatographic logP worked out at 0.99.
The compound `O=C(Cn1ncnn1)C1(Cl)CC1` [XVIb-01, 1-(1-chlorocyclopropyl)-2-(tetrazol-2-yl)ethanone] yielded a chromatographic logP of 1.3.
On the same count and under the same terms, under `OC(Cc1ccccc1Cl)(Cn1ncnn1)C1(Cl)CC1` (stereo not drawn) [Ib-04, 2-(1-chlorocyclopropyl)-1-(2-chlorophenyl)-3-(tetrazol-2-yl)propan-2-ol] stands 3.2.
